Test results from patent publication US20240360126A1, “PYRAZOLO[3,4-B]PYRIDINE COMPOUNDS FOR THE TREATMENT OF AUTOIMMUNE DISEASE” (Hoffmann-La Roche Inc., priority 2021, published 2024).

What was measured:
[1] = Human microsome stability assay; type: in vitro ADME; details: 1 μM test compound, 0.5 mg/mL liver microsomal protein, 37° C.
TLR9 = biological target: T1, TLR9 (Homo sapiens, UniProt Q9NR96); experiment: HEK293-Blue-hTLR-9 cells assay; type: cell-based; design: host or cells: HEK293 (HEK-Blue hTLR9); details: HEK293-Blue-hTLR9 cells, ODN2006 stimulation, 20 hrs; read-out: HEK/hTLR9 IC50
T1 sequence (Q9NR96 26-1032): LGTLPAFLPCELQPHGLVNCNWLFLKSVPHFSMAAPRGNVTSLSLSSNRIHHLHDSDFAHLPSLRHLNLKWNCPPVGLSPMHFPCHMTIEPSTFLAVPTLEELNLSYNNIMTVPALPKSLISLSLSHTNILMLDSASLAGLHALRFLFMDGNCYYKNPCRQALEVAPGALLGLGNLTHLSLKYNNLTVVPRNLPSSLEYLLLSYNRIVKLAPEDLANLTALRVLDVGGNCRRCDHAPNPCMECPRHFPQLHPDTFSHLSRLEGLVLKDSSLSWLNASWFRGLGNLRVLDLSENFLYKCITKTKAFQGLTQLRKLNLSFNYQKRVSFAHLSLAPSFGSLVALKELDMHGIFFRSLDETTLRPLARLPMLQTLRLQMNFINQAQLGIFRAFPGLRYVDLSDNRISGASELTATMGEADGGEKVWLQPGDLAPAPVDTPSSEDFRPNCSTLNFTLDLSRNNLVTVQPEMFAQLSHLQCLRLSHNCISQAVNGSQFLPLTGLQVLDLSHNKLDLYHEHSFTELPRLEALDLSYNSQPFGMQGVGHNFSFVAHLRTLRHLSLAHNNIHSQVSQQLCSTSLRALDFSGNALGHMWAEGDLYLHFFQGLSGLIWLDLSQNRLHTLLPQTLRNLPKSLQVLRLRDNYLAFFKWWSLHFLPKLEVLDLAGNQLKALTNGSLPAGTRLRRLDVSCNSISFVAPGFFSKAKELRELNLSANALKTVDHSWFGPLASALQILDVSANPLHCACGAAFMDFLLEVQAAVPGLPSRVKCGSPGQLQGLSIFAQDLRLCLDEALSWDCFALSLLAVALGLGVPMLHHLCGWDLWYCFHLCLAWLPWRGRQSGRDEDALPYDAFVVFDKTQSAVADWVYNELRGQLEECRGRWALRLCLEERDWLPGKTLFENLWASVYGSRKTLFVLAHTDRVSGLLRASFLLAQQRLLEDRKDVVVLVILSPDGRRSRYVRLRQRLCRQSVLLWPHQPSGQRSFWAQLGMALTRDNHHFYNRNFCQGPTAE
Text: A stable HEK293-Blue-hTLR-9 cell line was purchased from InvivoGen (Cat. #: hkb-htlr9, San Diego, California, USA). These cells were originally designed for studying the stimulation of human TLR9 by monitoring the activation of NF-κB. A SEAP (secreted embryonic alkaline phosphatase) reporter gene was placed under the control of the IFN-β minimal promoter fused to five NF-κB and AP-1-binding sites. The SEAP was induced by activating NF-κB and AP-1 via stimulating HEK-Blue hTLR9 cells with TLR9 ligands. Therefore the reporter expression was declined by TLR9 antagonist under the stimulation of a ligand, such as ODN2006 (Cat. #: tlrl-2006-1, Invivogen, San Diego, California, USA), for incubation of 20 hrs. The cell culture supernatant SEAP reporter activity was determined using QiANTI-Blue™ kit (Cat. #: rep-qbl, Invivogen, San Diego, California, USA) at a wavelength of 640 nm, a detection medium that turns purple or blue in the presence of alkaline phosphatase.
HEK293-Blue-hTLR9 cells were incubated at a density of 250,000-450,000 cells/mL in a volume of 170 μL in a 96-well plate in Dulbecco's Modified Eagle's medium (DMEM) containing 4.5 g/L glucose, 50 U/mL penicillin, […], […], 10% (v/v) heat-inactivated fetal bovine serum with addition of 20 μL test compound in a serial dilution in the presence of final DMSO at 1% and 10 μL of 20 μM ODN2006 in above DMEM, perform incubation under 37° C. in a C02 incubator for 20 hrs. Then 20 μL of the supernatant from each well was incubated with 180 μl. Quanti-blue substrate solution at 37° C. for 2 h and the absorbance was read at 620˜655 nm using a spectrophotometer. The signaling pathway that TLR9 activation leads to downstream NF-κB activation has been widely accepted, and therefore similar reporter assay was modified for evaluating TLR9 antagonist.

Row | SMILES | Clearance of Human microsome [1] | IC50 (TLR9)
1 | Cc1cc(N2CC[C@H](c3ccc(N4CCNCC4)cn3)[C@@H](C)C2)c2cnn(C)c2n1 [Example 35, 1,6-dimethyl-4-[(3R,4S)-3-methyl-4-(5-piperazin-1-yl-2-pyridyl)-1-piperidyl]pyrazolo[3,4-b]pyridine] | 6.2 mL/min/kg | 158 nM
2 | Cc1cc(N2CC[C@H](c3ccc(N4CCOC[C@@H](N)C4)cn3)[C@@H](C)C2)c2cnn(C)c2n1 [Example 40, (6S)-4-[6-[(3R,4S)-1-(1,6-dimethylpyrazolo[3,4-b]pyridin-4-yl)-3-methyl-4-piperidyl]-3-pyridyl]-1,4-oxazepan-6-amine] | 8.1 mL/min/kg | 173 nM
3 | Cc1cc(N2CC[C@H](c3ccc(N4CC[C@@H](N)[C@H](F)C4)cn3)[C@@H](C)C2)c2cnn(C)c2n1 [Example 41, (3R,4R)-1-[6-[(3R,4S)-1-(1,6-dimethylpyrazolo[3,4-b]pyridin-4-yl)-3-methyl-4-piperidyl]-3-pyridyl]-3-fluoro-piperidin-4-amine] | 7.2 mL/min/kg | 231 nM
4 | Cc1cc(N2CC[C@H](c3ccc(N4CC(C)(N)C4)cn3)[C@@H](C)C2)c2cnn(C)c2n1 [Example 43, 1-[6-[(3R,4S)-1-(1,6-dimethylpyrazolo[3,4-b]pyridin-4-yl)-3-methyl-4-piperidyl]-3-pyridyl]-3-methyl-azetidin-3-amine] | 6.5 mL/min/kg | 203 nM

Second part, the compound after the results:

Row | Clearance of Human microsome [1] | IC50 (TLR9) | SMILES
5 | 6.2 mL/min/kg | 332 nM | COC[C@H]1CN(c2ccc([C@H]3CCN(c4cc(C)nc5c4cnn5C)C[C@@H]3C)nc2)CCN1 [Example 37, 4-[(3R,4S)-4-[5-[(3R)-3-(methoxymethyl)piperazin-1-yl]-2-pyridyl]-3-methyl-1-piperidyl]-1,6-dimethyl-pyrazolo[3,4-b]pyridine]
6 | 7.8 mL/min/kg | 192 nM | Cc1cc(N2CC[C@H](c3ccc(N4CC5(CNCCO5)C4)cn3)[C@@H](C)C2)c2cnn(C)c2n1 [Example 38, 2-[6-[(3R,4S)-1-(1,6-dimethylpyrazolo[3,4-b]pyridin-4-yl)-3-methyl-4-piperidyl]-3-pyridyl]-5-oxa-2,8-diazaspiro[3.5]nonane]
7 | 6.7 mL/min/kg | 211 nM | CO[C@H]1CN(c2ccc([C@H]3CCN(c4cc(C)nc5c4cnn5C)C[C@@H]3C)nc2)CC[C@@H]1N [Example 39, (3S,4S)-1-[6-[(3R,4S)-1-(1,6-dimethylpyrazolo[3,4-b]pyridin-4-yl)-3-methyl-4-piperidyl]-3-pyridyl]-3-methoxy-piperidin-4-amine]
